Patent US20050215589A1, “Inhibitors of 5-HT2A receptor” (priority 2003, published 2005)

Experiments:
5-HT2C [1] = biological target: T1, 5-HT2C (Homo sapiens, UniProt P28335); experiment: FLIPR based assay, effect on 10 nM 5-HT induced Ca2+-currents; format: cell-based; details: FLIPR functional assays
T1 sequence (P28335 33-458): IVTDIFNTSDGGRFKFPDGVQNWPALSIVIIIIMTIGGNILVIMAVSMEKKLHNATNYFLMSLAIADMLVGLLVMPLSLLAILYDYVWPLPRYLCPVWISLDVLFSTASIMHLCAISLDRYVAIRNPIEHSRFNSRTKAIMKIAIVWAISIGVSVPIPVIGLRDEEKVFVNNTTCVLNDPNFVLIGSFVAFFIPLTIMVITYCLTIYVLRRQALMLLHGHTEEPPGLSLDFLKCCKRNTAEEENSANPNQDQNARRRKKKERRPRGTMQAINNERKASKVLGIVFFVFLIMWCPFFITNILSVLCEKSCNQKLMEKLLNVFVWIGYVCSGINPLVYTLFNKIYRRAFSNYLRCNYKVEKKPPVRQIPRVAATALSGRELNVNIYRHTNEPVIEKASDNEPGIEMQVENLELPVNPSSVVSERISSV
Method: The activity at 5-HT2C receptors was studied in a FLIPR based assay, measuring the effect of compounds on 10 nM 5-HT induced_Ca^2+-currents.

5-HT2A [2] = biological target: T2, 5-HT2A (Homo sapiens, UniProt P28223); experiment: FLIPR functional assay, inhibition of the 5-HT-evoked peak response (primary screening and IC50 determination); format: cell-based; set-up: expressed in transfected cells; host or cells: CHO; details: CHO cells expressing 5-HT2A, 15 min pre-incubation, Ki calculated from IC50 (Cheng-Prusoff)
Method: CHO cells expressing 5-HT2A receptors seeded in 384 well plates are pre-loaded with Fluo-4AM fluorescent dye and then incubated with compound (10 μM for primary screen) for 15 min. Fluorescent intensity is recorded using a Fluorometric imaging plate reader (FLIPR384, Molecular Devices) and inhibition of the peak response evoked by 5-HT (EC70 concentration) is calculated.
IC50 determinations are performed utilizing the same functional assay as described for primary screening (15 min antagonist compound pre-incubation), applying the compounds in the dose range of 3 nM to 10 μM.
(§1) The calculation of the Ki values for the inhibitors was performed by use of Activity Base. The Ki value is calculated from IC50 using the Cheng Prushoff equation (with reversible inhibition that follows the Michaelis-Menten equation): […] [Cheng, Y. C.; Prushoff, W. H. Biochem. Pharmacol. 1973, 22, 3099-3108].

5-HT6 = biological target: T3, 5-HT6 (Homo sapiens, UniProt P50406); experiment: Radioligand displacement binding (3H-5-HT); details: recombinant human receptor in CHO or HEK293; tracer 3H-5-HT
T3 construct: expressed in transfected cells; host or cells: CHO or HEK293
Method: (§2) The affinity constants of compounds were determined using recombinant human serotonin receptors stably expressed in fibroblast cell lines (CHO or HEK293), measuring the ability of the compounds to displace radio-labelled tracers using scintillation proximity assays or filter binding assays. For 5-HT1B, 5-HT2B and 5-HT2C receptor binding studies ^3H-LSD was used as radio ligand, for 5-HT2A and 5-HT6 ^3H-5-HT was used as tracer, while the binding constant to 5-HT1A was determined using ^3H-8-OH-DPAT. The non-selective serotonin receptor antagonist mianserine was used as reference substance.
as §1

5-HT2C [3] = biological target: T1, 5-HT2C; experiment: Radioligand displacement binding (3H-LSD); set-up: expressed in transfected cells; host or cells: CHO or HEK293; details: recombinant human receptor in CHO or HEK293; tracer 3H-LSD
Method: as §2, §1

5-HT2B = biological target: T4, 5-HT2B (Homo sapiens, UniProt P41595); experiment: Radioligand displacement binding (3H-LSD); details: recombinant human receptor in CHO or HEK293; tracer 3H-LSD
T4 construct: expressed in transfected cells; host or cells: CHO or HEK293
Method: as §2, §1

5-HT1B = biological target: T5, 5-HT1B (Homo sapiens, UniProt P28222); experiment: Radioligand displacement binding (3H-LSD); details: recombinant human receptor in CHO or HEK293; tracer 3H-LSD
T5 construct: expressed in transfected cells; host or cells: CHO or HEK293
Method: as §2, §1

5-HT1A = biological target: T6, 5-HT1A (Homo sapiens, UniProt P08908); experiment: Radioligand displacement binding (3H-8-OH-DPAT); details: recombinant human receptor in CHO or HEK293; tracer 3H-8-OH-DPAT
T6 construct: expressed in transfected cells; host or cells: CHO or HEK293
T6 sequence (P08908 1-422): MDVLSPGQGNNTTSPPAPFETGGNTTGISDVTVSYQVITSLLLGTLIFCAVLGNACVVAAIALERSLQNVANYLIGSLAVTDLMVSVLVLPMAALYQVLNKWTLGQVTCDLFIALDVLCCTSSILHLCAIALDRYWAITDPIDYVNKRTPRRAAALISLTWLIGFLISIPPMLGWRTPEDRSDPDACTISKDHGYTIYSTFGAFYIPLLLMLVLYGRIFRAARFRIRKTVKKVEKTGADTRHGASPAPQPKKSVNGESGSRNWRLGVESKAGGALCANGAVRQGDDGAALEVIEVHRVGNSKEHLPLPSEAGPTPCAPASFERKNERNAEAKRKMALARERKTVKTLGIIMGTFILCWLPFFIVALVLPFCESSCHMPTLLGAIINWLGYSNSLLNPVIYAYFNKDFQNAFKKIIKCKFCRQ
Method: as §2, §1

5-HT2A [4] = biological target: T2, 5-HT2A; experiment: Radioligand displacement binding (3H-5-HT); set-up: expressed in transfected cells; host or cells: CHO or HEK293
Method: as §2, §1

T2 sequence (P28223 whole entry): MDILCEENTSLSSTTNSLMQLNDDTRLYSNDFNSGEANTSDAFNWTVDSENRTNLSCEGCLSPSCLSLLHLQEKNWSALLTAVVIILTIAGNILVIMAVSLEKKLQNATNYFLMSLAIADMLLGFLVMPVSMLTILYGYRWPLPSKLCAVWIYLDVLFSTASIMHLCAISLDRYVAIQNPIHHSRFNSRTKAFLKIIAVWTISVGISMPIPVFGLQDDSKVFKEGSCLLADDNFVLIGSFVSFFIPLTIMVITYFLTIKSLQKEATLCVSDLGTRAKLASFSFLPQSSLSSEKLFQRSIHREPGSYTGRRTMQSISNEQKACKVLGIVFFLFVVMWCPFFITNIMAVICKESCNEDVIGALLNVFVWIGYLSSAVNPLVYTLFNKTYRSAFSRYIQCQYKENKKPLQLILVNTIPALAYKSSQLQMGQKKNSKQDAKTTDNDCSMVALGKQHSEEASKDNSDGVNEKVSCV
T4 sequence (P41595 whole entry): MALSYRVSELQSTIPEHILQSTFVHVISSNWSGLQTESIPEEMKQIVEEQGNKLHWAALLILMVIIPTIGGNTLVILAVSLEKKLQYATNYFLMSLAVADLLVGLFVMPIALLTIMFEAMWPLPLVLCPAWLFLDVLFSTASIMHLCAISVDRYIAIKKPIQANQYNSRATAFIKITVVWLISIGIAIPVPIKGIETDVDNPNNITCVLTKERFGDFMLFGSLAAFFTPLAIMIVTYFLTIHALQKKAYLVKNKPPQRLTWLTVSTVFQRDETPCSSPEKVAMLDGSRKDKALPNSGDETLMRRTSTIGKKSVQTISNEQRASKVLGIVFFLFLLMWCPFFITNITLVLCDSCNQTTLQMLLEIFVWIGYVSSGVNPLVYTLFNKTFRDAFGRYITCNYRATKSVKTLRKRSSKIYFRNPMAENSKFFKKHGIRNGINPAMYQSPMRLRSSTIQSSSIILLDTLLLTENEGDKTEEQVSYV
T5 sequence (P28222 whole entry): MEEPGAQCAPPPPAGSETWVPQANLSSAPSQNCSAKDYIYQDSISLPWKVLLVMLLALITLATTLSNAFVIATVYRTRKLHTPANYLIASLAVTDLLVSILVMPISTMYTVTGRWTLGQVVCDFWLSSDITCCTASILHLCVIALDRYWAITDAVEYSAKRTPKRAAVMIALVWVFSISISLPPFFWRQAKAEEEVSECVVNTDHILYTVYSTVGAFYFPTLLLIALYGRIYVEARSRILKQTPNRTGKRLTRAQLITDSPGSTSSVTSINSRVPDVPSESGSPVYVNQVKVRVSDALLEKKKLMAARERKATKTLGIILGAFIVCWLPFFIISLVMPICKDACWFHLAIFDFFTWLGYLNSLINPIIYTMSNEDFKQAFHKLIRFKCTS
T3 sequence (P50406 whole entry): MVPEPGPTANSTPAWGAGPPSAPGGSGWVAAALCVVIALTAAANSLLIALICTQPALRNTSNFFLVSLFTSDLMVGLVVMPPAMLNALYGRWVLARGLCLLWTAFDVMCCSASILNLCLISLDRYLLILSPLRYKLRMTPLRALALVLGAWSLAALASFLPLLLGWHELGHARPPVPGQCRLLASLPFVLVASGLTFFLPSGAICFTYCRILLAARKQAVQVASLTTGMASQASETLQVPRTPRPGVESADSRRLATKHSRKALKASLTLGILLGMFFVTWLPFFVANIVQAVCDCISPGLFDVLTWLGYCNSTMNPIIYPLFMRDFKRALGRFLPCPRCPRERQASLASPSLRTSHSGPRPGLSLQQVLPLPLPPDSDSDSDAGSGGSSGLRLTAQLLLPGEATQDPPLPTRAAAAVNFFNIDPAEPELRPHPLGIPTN

**Q.** What does the source list for `COc1cccc(OC)c1OCCN1CCC(C(=O)NC(=O)Nc2cccc(C(F)(F)F)c2)CC1` [Example 2, 1-[2-(2,6-dimethoxyphenoxy)ethyl]-N-({[3-(trifluoromethyl)phenyl]amino}carbonyl)piperidine-4-carboxamide]?
**A.** Selectivity at 5-HT2A versus the 5-HT2C receptor in terms of efficacy (5-HT2C [1]): selective; Ki (5-HT2A [2]): 32.3 nM; Ki (5-HT6): > 1000 nM; Ki (5-HT2C [3]): > 1000 nM; Ki (5-HT2B): > 1000 nM; Ki (5-HT1B): > 1000 nM; Ki (5-HT1A): > 1000 nM; Selectivity over five other serotonin receptors (5-HT2C, 5-HT2B, 5-HT1A, 5-HT6 and 5-HT1B) (5-HT2A [4]; binding, 5-HT2A versus the other receptors): highly selective; Affinity for the 5-HT2A receptor subtype (Ki, in words) (5-HT2A [4]; equilibrium displacement binding): in the nanomolar range; Ki (5-HT2A [4]; recombinant human receptor in CHO or HEK293, tracer 3H-5-HT): 23 nM
